From patent EP2548557A1, “Reserpine to treat cognitive faults of the central nervous system” (Dr. Loges + Co. GmbH, priority 2011, dated 2013)

Tests used:
[1] = tested on: metabotrope Gruppe II Rezeptoren; assay: Hippocampus slice preparation: suppression of the reserpine effect by a glutamate receptor antagonist (metabotropic group II); assay type: cell-based, Ratte; conditions: co-superfusion of antagonist with Reserpin; single and multiple stimuli (Abb. 5, Abb. 6)
From the text: (§1) Wirkungen von Reserpin auf die Erregbarkeit der Pyramidenzellen wurden im Hippokampus-Schnittpräparat der Ratte bestimmt. Die Analyse der Wirkungen erfolgte auf zwei Ebenen. Zunächst wurde anhand der Applikation von Einzelreizen die normale Erregbarkeit überprüft und anschließend nach einer sog. "Theta-burst-Stimulation" die Auswirkungen auf die Langzeitpotenzierung gemessen. Im nächsten Schritt wurde versucht, die Wirkung von Reserpin mit Hilfe von verschiedenen Rezeptor-spezifischen Glutamat Antagonisten zu unterdrücken.
(§2) Desweiteren wurde die Erregbarkeit der Pyramidenzellen in der Ausgangslage durch Superfusion mit einem Glutamat Rezeptor Antagonisten verändert. In der Folge wurde dann gleichzeitig Reserpin mit den verschiedenen Antagonisten zusammen superfundiert, um eine antagonistische Wirkung zu erkennen.
(§3) Dieselbe Versuchsanordnung wurde noch einmal genutzt, um in Gegenwart verschiedenster Glutamat Rezeptor Antagonisten Hinweise für eine Interaktion zwischen Reserpin und einem der Glutamat-Rezeptoren (GluR5 Kainate steht dabei für den ionotropen GluR5 Kainate-Rezeptor, Glu NMDA - für ionotrope NMDA-Rezeptoren, Glu AMPA - für ionotrope AMPA-Rezeptoren, und Glu II - für metabotrope Gruppe II Rezeptoren) zu erhalten (Abb. 5 und Abb.6).
(§4) Es wurden vier Antagonisten getestet. Dabei steht UB 301 für den Kainate-Rezeptor-Antagonisten UBP 301, CAS-Nr. 569371-10-4, der Formel [drawing 2] […]

[2] = tested on: Pyramidenzellen im Hippokampus-Schnittpräparat; conditions: literature description (Dimpfel 1995) used as comparison; cited from earlier work
[3] = tested on: ionotrope AMPA-Rezeptoren; assay: Hippocampus slice preparation: suppression of the reserpine effect by a glutamate receptor antagonist (AMPA); assay type: cell-based, Ratte; conditions: co-superfusion of antagonist with Reserpin; multiple stimuli
From the text: as §1, §2, §3, §4

Fischer-344 Ratten = assay: Tele-Stereo-EEG: changes of EEG frequencies (spectral power) after oral administration; assay type: in vivo, Ratte
Protocol: Die Veränderungen der EEG-Frequenzen wurde nach oraler Gabe von Lactosemonohydrat (Kontrolle/Vehikel) bzw. Verdünnungen von Reserpin in Lactosemonohydrat entsprechend 0,01, 0,02 oder 0,04 µg Reserpin/kg Körpergewicht) bestimmt.
Die Untersuchungen wurden analog der durch W. Dimpfel beschriebenen Methode (Dimpfel W Preclinical data base of pharmaco-specific rat EEG fingerprints (Tele-Stereo-EEG). Eur J Med Res (2003) 8: 199-207; auf dieses Dokument wird vollinhaltlich bezug genommen) folgendermaßen durchgeführt:
Zwölf männlichen erwachsenen Fischer-344 Ratten (Tag-Nacht konvertiert) wurden im Alter von 6 Monaten 4 bipolar konzentrische Elektroden zusammen mit einem Mikrostecker auf einer gemeinsamen Basisplatte implantiert. Der Stecker diente der Aufnahme eines 4-Kanal-Senders zur telemetrischen Übertragung der aus frontalem Kortex, Hippokampus, Striatum und Formatio Reticularis abgeleiteten Feldpotentiale. Die Signale wurden auf einem Computer System (Software "EEG-Analyse", Betriebssystem OS Science, Laborrechner "LabTeam" der Firma MediSyst, Linden, DE) in Echtzeit einer Fast-FourierTransformation unterworfen und die Leistungsdichtespektren jeweils über 60 Minuten gemittelt. Die Unterteilung der Spektren in 6 verschiedene Frequenzbereiche erlaubte die Erfassung pharmako-spezifischer Veränderungen in Bezug auf die jeweils vor Applikation gemessenen Vorwerte innerhalb dieser Frequenzbänder.
Zum Applikationsprotokoll der Substanzen: die Substanzen wurden oral 45 Minuten nach Beginn der Messungen (Vorwert) appliziert. Fünf Minuten später wurden die Messungen wieder gestartet, mindestens über die nächsten 5 Stunden kontinuierlich analysiert und in 60-minütigen Perioden zusammengefasst. Die Testsubstanz wurde in einer Dosierung von 0,01, 0,02 und 0,04 µg/kg appliziert. Die experimentelle Serie wurde mit der Applikation von Lactosemonohydrat (Kontrolle), die zu keiner auffälligen Änderung führte, begonnen (oberste Zeile in Abb. 1).
Der statistische Vergleich der Versuche zu den Ergebnissen, die nach Gabe des Vehikels gemessen wurde, erfolgte mit Hilfe des statistischen Tests nach Wilcoxon, Mann und Whitney auf der Basis der Veränderungen innerhalb der einzelnen Frequenzbänder in allen Hirnregionen als Variablen.

[4] = tested on: Pyramidenzellen im Hippokampus-Schnittpräparat; assay: Population spike of pyramidal cells and long-term potentiation in hippocampus slice preparation in vitro; assay type: cell-based, Ratte; conditions: 0,025-0,1 µg/Liter Reserpin, n=4 slices
From the text: Zunächst wurde anhand der Applikation von Einzelreizen die normale Erregbarkeit überprüft und anschließend nach einer sog. "Theta-burst-Stimulation" die Auswirkungen auf die Langzeitpotenzierung gemessen.
Das Experiment selbst wurde in einer sog. "Base Unit" mit Haas Top" (Firma Medical Systems Corp., USA) bei 35 Grad Celsius durchgeführt. Der mit Hilfe peristaltischer Pumpen (Infusomat B. Braun Melsungen AG) superfundierte Hippokampus-Schnitt lag auf einem Stück Gaze. Eingeleitetes Carbogen hielt die erforderliche Sauerstoffzufuhr der Lösung aufrecht. Die Durchflussgeschwindigkeit betrug 200 ml/h.
Dabei wurde der Schnitt zunächst mit Kontrolllösung superfundiert. […] Jeder Schnitt wurde jeweils nur zu einem Experiment benutzt.
Die Ableitung der evozierten Antwort erfolgte in 10-minütigem Abstand extrazellulär mit einer gezogenen Glaskapillare (Elektrodenpuller, Rhema Labortechnik, DE). Das Antwortsignal wurde verstärkt (Verstärker "LMI", List Electronics, Darmstadt, DE) mit einem Laborrechnersystem Labteam (Software NeuroTool, MediSyst GmbH, Linden DE) analog digital gewandelt (Auflösung 12 Bit) und ausgewertet. Nach Auffinden eines geeigneten Signals (Amplitudenhöhe etwa 1 mV) wurde die Amplitudenhöhe des Populationsspikes (SAP=Summenaktionspotential; Popspike) als Ausgangsgröße festgelegt. […]

NC1(C(=O)O)CCc2cc(P(=O)(O)O)ccc21 (racemic) [RS-Apica, (RS)-1-Amino-5-phosphono-indan-1-carbonsäure]
Unterdrückung der Wirkung von Reserpin durch Antagonist [1]: besonders ausgeprägt unterdrücken

CC12CC3CC(C)(C1)CC(N)(C3)C2 [Memantin]
Langzeit-Potenzierung (LTP) bei multipler elektrischer Reizung [2]: Steigerung der LTP

NS(=O)(=O)c1cccc2c1c([N+](=O)[O-])cc1[nH]c(=O)c(=O)[nH]c12 [NBQX]
Unterdrückung der Wirkung von Reserpin durch Antagonist [3]: auch eine Unterdrückung

COC(=O)[C@H]1[C@H]2C[C@@H]3c4[nH]c5cc(OC)ccc5c4CCN3C[C@H]2C[C@@H](OC(=O)c2cc(OC)c(OC)c(OC)c2)[C@@H]1OC [Reserpin, (1S,2R,3R,4aS,13bR,14aS)-2,11-Dimethoxy-3-(3,4,5-trimethoxybenzoyloxy)-1,2,3,4,4a,5,7,8,13,13b,14,14a-dodecahydroindolo[2',3':3,4]pyrido[1,2-b]isochinolin-1-carbonsäuremethylester]
Frequenzmuster in der Diskriminanzanalyse im Vergleich zu Referenzmedikamenten (Fischer-344 Ratten; 0.02 µg/kg, 35 - 65 min, linear discriminant analysis, 4 brain regions x 6 frequency bands, compared with Memantin, Rasagiline, Methylphenidat): korreliert in auffälliger Weise mit den Mustern | Steigerung der Motilität der Tiere (Fischer-344 Ratten; oral, 0,01, 0,02 and 0,04 µg/kg): nicht beobachtet | alpha2 Wellen (spektrale Leistung) (Fischer-344 Ratten; oral, 0,01, 0,02 and 0,04 µg/kg, frequency band most affected): Besonders stark waren die alpha2 Wellen betroffen | spektrale Leistung in allen Frequenzbereichen (EEG) (Fischer-344 Ratten; oral, 0,01, 0,02 and 0,04 µg/kg, frontal cortex, hippocampus, striatum, formatio reticularis, vs. vehicle Lactosemonohydrat, n=12): dosis-abhängigen Unterdrückung der spektralen Leistung in allen Frequenzbereichen | Amplitude des Populationsspikes bei Einzelreizung ([4]; single stimuli of Schaffer collaterals): Konzentrations-abhängige Zunahme | Auslösung der Langzeitpotenzierung durch TBS ([4]; theta-burst stimulation): Konzentrations-abhängig verbessert
